From PubChem BioAssay AID2060483 (Molecular Pharmacology Branch, DTP, NCI, 2025)

System: K24384-001-R-PDC complex spheroids, viability
Test: Anticancer human tumor K24384-001-R-PDC patient-derived pancreatic adenocarcinoma cell line growth inhibition [GQUAD]
Conditions: for IC50: curve of first compound; for viability, T/C: stronger effect = lower value
How it was run: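 Tumor cells were grown as complex spheroids with HUVEC endothelial cells and mesenchymal stem cells as stroma. G-quadruplex stabilizers were combined with targeted agents over half-log dilutions from near the clinical Cmax, or from 10 microM.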

[1] = second compound 0.0316 µM, first compound 0.0316 µM
[2] = second compound 0.0316 µM, first compound 0.1 µM
[3] = second compound 0.0316 µM, first compound 0.316 µM
[4] = second compound 0.0316 µM, first compound 1 µM
[5] = second compound 0.0316 µM, first compound 3.16 µM
[6] = second compound 0.0316 µM, first compound 10 µM
[7] = second compound 0.1 µM, first compound 0.0316 µM
[8] = second compound 0.1 µM, first compound 0.1 µM
[9] = second compound 0.1 µM, first compound 0.316 µM
[10] = second compound 0.1 µM, first compound 1 µM
[11] = second compound 0.1 µM, first compound 3.16 µM
[12] = second compound 0.1 µM, first compound 10 µM
[13] = second compound 0.316 µM, first compound 0.0316 µM
[14] = second compound 0.316 µM, first compound 0.1 µM
[15] = second compound 0.316 µM, first compound 0.316 µM
[16] = second compound 0.316 µM, first compound 1 µM
[17] = second compound 0.316 µM, first compound 3.16 µM
[18] = second compound 0.316 µM, first compound 10 µM
[19] = second compound 1 µM, first compound 0.0316 µM
[20] = second compound 1 µM, first compound 0.1 µM
[21] = second compound 1 µM, first compound 0.316 µM
[22] = second compound 1 µM, first compound 1 µM
[23] = second compound 1 µM, first compound 3.16 µM
[24] = second compound 1 µM, first compound 10 µM
[25] = second compound 3.16 µM, first compound 0.0316 µM
[26] = second compound 3.16 µM, first compound 0.1 µM
[27] = second compound 3.16 µM, first compound 0.316 µM
[28] = second compound 3.16 µM, first compound 1 µM
[29] = second compound 3.16 µM, first compound 3.16 µM
[30] = second compound 3.16 µM, first compound 10 µM
[31] = second compound 10 µM, first compound 0.0316 µM
[32] = second compound 10 µM, first compound 0.1 µM
[33] = second compound 10 µM, first compound 0.316 µM
[34] = second compound 10 µM, first compound 1 µM
[35] = second compound 10 µM, first compound 3.16 µM
[36] = second compound 10 µM, first compound 10 µM
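Further: spheroids exposed to compounds for seven days.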

CC1COCCN1c1cc(-c2ccnn2C)c2ccnc(-c3ccn[nH]3)c2n1 (stereo unspecified) + Cc1[nH]c2ccc(F)cc2c1-c1nc2c3cccnc3c3ncccc3c2[nH]1
IC50 (second compound 0.0316 µM): 215 nM
IC50 (second compound 0.1 µM): 242 nM
IC50 (second compound 0.316 µM): 219 nM
IC50 (second compound 1 µM): 178 nM
IC50 (second compound 3.16 µM): 57.6 nM
IC50 (second compound 10 µM): 51.1 nM
viability, T/C [1]: 84.6%
viability, T/C [2]: 63.7%
viability, T/C [3]: 45.1%
viability, T/C [4]: 28.7%
viability, T/C [5]: 44.8%
viability, T/C [6]: 31.8%
viability, T/C [7]: 68.7%
viability, T/C [8]: 68.9%
viability, T/C [9]: 44.3%
viability, T/C [10]: 31.1%
viability, T/C [11]: 45%
viability, T/C [12]: 36.5%
viability, T/C [13]: 71.4%
viability, T/C [14]: 76.5%
viability, T/C [15]: 38.7%
viability, T/C [16]: 33.5%
viability, T/C [17]: 39.8%
viability, T/C [18]: 38.2%
viability, T/C [19]: 62.1%
viability, T/C [20]: 64.6%
viability, T/C [21]: 29.5%
viability, T/C [22]: 41.5%
viability, T/C [23]: 39.6%
viability, T/C [24]: 36.3%
viability, T/C [25]: 55.5%
viability, T/C [26]: 48.1%
viability, T/C [27]: 31.4%
viability, T/C [28]: 41%
viability, T/C [29]: 29.3%
viability, T/C [30]: 35.7%
viability, T/C [31]: 57.4%
viability, T/C [32]: 39.9%
viability, T/C [33]: 30.3%
viability, T/C [34]: 31.5%
viability, T/C [35]: 24.1%
viability, T/C [36]: 28.9%

O=C(NO)c1cnc(N2CCN(S(=O)(=O)c3ccc4ccccc4c3)CC2)nc1 + Cc1[nH]c2ccc(F)cc2c1-c1nc2c3cccnc3c3ncccc3c2[nH]1
IC50 (second compound 0.0316 µM): 618 nM
IC50 (second compound 0.1 µM): 671 nM
IC50 (second compound 0.316 µM): 787 nM
IC50 (second compound 1 µM): 1050 nM
IC50 (second compound 3.16 µM): 871 nM
IC50 (second compound 10 µM): 858 nM
viability, T/C [1]: 109%
viability, T/C [2]: 105%
viability, T/C [3]: 87.7%
viability, T/C [4]: 23.1%
viability, T/C [5]: 0.14%
viability, T/C [6]: 0.17%
viability, T/C [7]: 96.6%
viability, T/C [8]: 103%
viability, T/C [9]: 79.2%
viability, T/C [10]: 35%
viability, T/C [11]: 0.16%
viability, T/C [12]: 0.15%
viability, T/C [13]: 102%
viability, T/C [14]: 94.5%
viability, T/C [15]: 88.4%
viability, T/C [16]: 40.5%
viability, T/C [17]: 0.1%
viability, T/C [18]: 0.12%
viability, T/C [19]: 105%
viability, T/C [20]: 107%
viability, T/C [21]: 101%
viability, T/C [22]: 52.3%
viability, T/C [23]: 0.16%
viability, T/C [24]: 0.12%
viability, T/C [25]: 75.6%
viability, T/C [26]: 110%
viability, T/C [27]: 88.7%
viability, T/C [28]: 44.7%
viability, T/C [29]: 0.18%
viability, T/C [30]: 0.14%
viability, T/C [31]: 71.5%
viability, T/C [32]: 95.8%
viability, T/C [33]: 82.7%
viability, T/C [34]: 44.9%
viability, T/C [35]: 0.22%
viability, T/C [36]: 0.17%

CC[C@@]1(O)C(=O)OCc2c1cc1n(c2=O)Cc2cc3c(CN(C)C)c(O)ccc3nc2-1 + Cc1[nH]c2ccc(F)cc2c1-c1nc2c3cccnc3c3ncccc3c2[nH]1
IC50 (second compound 0.0316 µM): > 316 nM
IC50 (second compound 0.1 µM): 292 nM
IC50 (second compound 0.316 µM): 233 nM
IC50 (second compound 1 µM): 239 nM
IC50 (second compound 3.16 µM): 139 nM
IC50 (second compound 10 µM): 146 nM
viability, T/C (second compound 0.0316 µM, first compound 0.000999 µM): 102%
viability, T/C (second compound 0.0316 µM, first compound 0.00316 µM): 110%
viability, T/C (second compound 0.0316 µM, first compound 0.00999 µM): 95.7%
viability, T/C [1]: 80.9%
viability, T/C (second compound 0.0316 µM, first compound 0.0999 µM): 61.3%
viability, T/C [3]: 51.2%
viability, T/C (second compound 0.1 µM, first compound 0.000999 µM): 83.5%
viability, T/C (second compound 0.1 µM, first compound 0.00316 µM): 113%
viability, T/C (second compound 0.1 µM, first compound 0.00999 µM): 82.4%
viability, T/C [7]: 87.7%
viability, T/C (second compound 0.1 µM, first compound 0.0999 µM): 65.8%
viability, T/C [9]: 49%
viability, T/C (second compound 0.316 µM, first compound 0.000999 µM): 85.4%
viability, T/C (second compound 0.316 µM, first compound 0.00316 µM): 92.2%
viability, T/C (second compound 0.316 µM, first compound 0.00999 µM): 83.1%
viability, T/C [13]: 82.9%
viability, T/C (second compound 0.316 µM, first compound 0.0999 µM): 68.3%
viability, T/C [15]: 43.4%
viability, T/C (second compound 1 µM, first compound 0.000999 µM): 95.7%
viability, T/C (second compound 1 µM, first compound 0.00316 µM): 92.8%
viability, T/C (second compound 1 µM, first compound 0.00999 µM): 98.8%
viability, T/C [19]: 76.8%
viability, T/C (second compound 1 µM, first compound 0.0999 µM): 59%
viability, T/C [21]: 46.7%
viability, T/C (second compound 3.16 µM, first compound 0.000999 µM): 73.8%
viability, T/C (second compound 3.16 µM, first compound 0.00316 µM): 74.7%
viability, T/C (second compound 3.16 µM, first compound 0.00999 µM): 79.1%
viability, T/C [25]: 81.2%
viability, T/C (second compound 3.16 µM, first compound 0.0999 µM): 53.6%
viability, T/C [27]: 41%
viability, T/C (second compound 10 µM, first compound 0.000999 µM): 78.1%
viability, T/C (second compound 10 µM, first compound 0.00316 µM): 55%
viability, T/C (second compound 10 µM, first compound 0.00999 µM): 66.4%
viability, T/C [31]: 67.4%
viability, T/C (second compound 10 µM, first compound 0.0999 µM): 58.8%
viability, T/C [33]: 31.3%
